Data published in patent publication US20220267734A1, “HETEROGENEOUS STEM CELL POPULATION, PREPARATION METHOD THEREFOR AND USE THEREOF” (INSTITUTE OF BASIC MEDICAL SCIENCES, CHINESE ACADEMY OF …, priority 2019, published 2022).

Columns and labels:
[1] = system: human brain pericytes (HBPs); assay: q-PCR gene expression in human brain pericytes under IL-1β with or without DAPT or PDTC; assay type: cell-based; conditions: for gene expression of TIMP-1: among control, IL-1β and IL-1β+inhibitor groups
Text: We added interleukin 1β (IL-1β) to Transwell in vitro blood-brain barrier model, and cultured human brain microvascular endothelial cells (HBMVECs), human brain pericytes (HBPs) and human brain astrocytes (HBAs) in vitro. We verified HBMVECs, HBPs and HBAs by immunofluorescence staining. Among them, HBMVEC was stained with the antibody against vWF; HBP was stained with the antibodies against α-SMA and NG2, and vWF and GFAP antibodies; and HBA was stained with GFAP antibody (FIG. 8B). […] HBPs were treated with IL-1β for 30 minutes followed by DAPT treatment for 24 hours, and were subjected to q-PCR quantification. It could be seen from FIG. 8E that, compared with the control group, the gene expression of NOTCH3 in the IL-1β group was increased; compared with the IL-1β group, the gene expression of NOTCH3 in the IL-1β+DAPT group was reduced.

[2] = system: subpluripotent stem cells; assay: IRISIN-induced differentiation into beige adipocytes (UCP1 marker); assay type: cell-based; conditions: marker protein UCP1 by real-time fluorescence quantification and western blotting, P<0.05
Text: In recent years, a new hormone IRISIN has been discovered, which is a muscle factor secreted after exercise. It is released from the cleavage of its precursor—fibronectin III domain containing 5 (Fndc5), and is involved in the function of the muscles, the cardiovascular system, the nerves and energy metabolism. In the process of energy regulation, IRISIN is a potential regulator in sugar metabolism. In this study, we used the heterogeneous stem cell population of the present invention as seed cells, and used IRISIN to induce them to differentiate into beige adipocytes (see FIG. 9).
The adipose tissue was washed twice with D-Hanks' solution containing dual antibiotics (penicillin, streptomycin), and centrifuged at 800 rpm for 3 min. The lower layer of the liquid after washing was removed with a pipette and the adipose tissue was transferred to a new centrifugation tube of 50 ml. 0.2% collagenase P was added for digestion. The tube was incubated in a shaker at a constant temperature of 37° C. for 30 min. An appropriate amount of D-Hanks' solution was added to the digested adipose tissue, which was then filtered with a […] cell sieve to remove undigested tissue. The mixture was centrifuged at 1500 rpm for 10 min. The upper layer of grease was removed with a pipette, then the supernatant was discarded and the cell pellet was re-suspended in D-Hanks' solution and washed once. […]

[3] = IL-1β 30 minutes then inhibitor 24 hours, compared with the IL-1β group
[4] = IL-1β group compared with the control group

C[C@H](NC(=O)Cc1cc(F)cc(F)c1)C(=O)N[C@H](C(=O)OC(C)(C)C)c1ccccc1 [DAPT]
gene expression of MMP-9 [1, 3]: significantly lower
gene expression of NF-κB p65 [1, 3]: significantly reduced
gene expression of NOTCH3 [1, 3]: reduced
gene expression of TIMP-1 [1]: did not change much

N.S=C(S)N1CCCC1 [PDTC]
gene expression of NOTCH3 [1, 3]: did not change much
gene expression of TIMP-1 [1]: did not change significantly

IL-1β: interleukin 1β added to Transwell in vitro blood-brain barrier model
gene expression of MMP-9 [1, 4]: significantly increased
gene expression of NF-κB p65 [1, 4]: significantly increased
gene expression of NOTCH3 [1, 4]: increased

B1: IRISIN: muscle factor secreted after exercise, released by cleavage of Fndc5 (protein, UniProt Q8NAU1 1-191, looked up)
Irisin: MQAARGGAGRPERPGRPGRGPERERERPPGAGAASPCAAPGLPAGGATIHPGSPSAWPPRARAALRLWLGCVCFALVQADSPSAPVNVTVRHLKANSAVVSWDVLEDEVVIGFAISQQKKDVRMLRFIQEVNTTTRSCALWDLEEDTEYIVHVQAISIQGQSPASEPVLFKTPREAEKMASKNKDEVTMKE
modifications: Irisin
notes: muscle factor secreted after exercise, released by cleavage of Fndc5
differentiation into beige adipocytes [2]: induces the differentiation
